Experimental data taken from the supplement of paper PMC10307832.

Columns and labels:
Test in all cases: relative viability (nuclei count vs DMSO), 5 days (fraction); higher = more cells survive
[1] = compound: CC1=C(CC(=O)O)c2cc(F)ccc2/C1=C\c1ccc([S+](C)[O-])cc1 [Sulindac] + C[C@]1(O)C[C@@H](c2nc(-c3ccc4ccc(-c5ccccc5)nc4c3)c3c(N)nccn32)C1 [Linsitinib] (partner 1 µM)
Outline: (§1)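 For relative viability, nuclei counts in treated wells were divided by those in vehicle wells. Lung cancer cell lines had been pin-tool dosed in 1536-well plates the day after seeding and cultured for 5 days, then fixed and stained in one step (final 0.05% Triton X-100, 1% formaldehyde, 1 ug/ml Hoechst) and imaged at 4×. Doses were one drug alone or a fixed anchor-drug dose plus five library-drug doses (not always all listed) in √10 steps, and values are duplicate-plate medians.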

[2] = compound: O=c1[nH]cc(F)c(=O)[nH]1 [5-Fluorouracil] + Cc1nc(NC(=O)N2CCC[C@H]2C(N)=O)sc1-c1ccnc(C(C)(C)C(F)(F)F)c1 [Alpelisib] (partner 2 µM)
Outline: as §1

[3] = compound: CN[C@@H]1C[C@H]2O[C@@](C)([C@@H]1OC)n1c3ccccc3c3c4c(c5c6ccccc6n2c5c31)C(=O)NC4 [Staurosporine] + Nc1ncn([C@H]2C[C@H](O)[C@@H](CO)O2)c(=O)n1 [Decitabine] (partner 2 µM)
Outline: as §1

[4] = compound: CN[C@@H]1C[C@H]2O[C@@](C)([C@@H]1OC)n1c3ccccc3c3c4c(c5c6ccccc6n2c5c31)C(=O)NC4 [Staurosporine] + COc1cc2c(Oc3ccc(NC(=O)C4(C(=O)Nc5ccc(F)cc5)CC4)cc3F)ccnc2cc1OCCCN1CCOCC1 [Foretinib] (partner 0.25 µM)
Outline: as §1

| Cell Line | relative viability ([1]; first compound 0.08 µM) | relative viability ([1]; first compound 0.253 µM) | relative viability ([1]; first compound 0.8 µM) | relative viability ([1]; first compound 2.53 µM) | relative viability ([1]; first compound 8 µM) | relative viability ([2]; first compound 0.02 µM) | relative viability ([2]; first compound 0.2 µM) | relative viability ([2]; first compound 0.6325 µM) | relative viability ([2]; first compound 2 µM) | relative viability ([3]; first compound 0.005 µM) | relative viability ([3]; first compound 0.01581 µM) | relative viability ([3]; first compound 0.05 µM) | relative viability ([3]; first compound 0.1581 µM) | relative viability ([3]; first compound 0.5 µM) | relative viability ([4]; first compound 0.005 µM) | relative viability ([4]; first compound 0.01581 µM) | relative viability ([4]; first compound 0.05 µM) | relative viability ([4]; first compound 0.1581 µM) | relative viability ([4]; first compound 0.5 µM) |
| --- | --- | --- | --- | --- | --- | --- | --- | --- | --- | --- | --- | --- | --- | --- | --- | --- | --- | --- | --- |
| NCI-H2126 | 0.608 | 0.713 | 0.661 | 0.726 | 0.728 | 0.668 | 0.337 | 0.274 | 0.272 | 0.612 | 0.521 | 0.468 | 0.43 | 0.363 | 1.35 | 0.69 | 0.634 | 0.613 | 0.297 |
| NCI-H596 | 0.943 | 0.985 | 0.857 | 1.12 | 1.27 | 0.357 | 0.449 | 0.497 | 0.381 | 1.01 | 0.885 | 0.712 | 0.366 | 0.504 | 1.32 | 0.839 | 0.587 | 0.297 | 0.305 |
| LOU-NH91 | 0.877 | 0.916 | 0.858 | 0.933 | 1.09 | 0.679 | 0.706 | 0.57 | 0.466 | 0.788 | 0.607 | 0.624 | 0.4 | 0.314 | 0.923 | 0.816 | 0.627 | 0.512 | 0.238 |
| NCI-H1651 | 1.1 | 1.01 | 0.777 | 0.955 | 1.27 | 1.01 | 0.672 | 0.552 | 0.504 | 0.623 | 0.509 | 0.324 | 0.146 | 0.131 | 0.74 | 0.615 | 0.346 | 0.259 | 0.0644 |
| NCI-H520 | 1.24 | 1.1 | 0.739 | 0.997 | 1.33 | 0.537 | 0.975 | 0.717 | 0.383 | 0.527 | 0.465 | 0.392 | 0.188 | 0.161 | 0.692 | 0.759 | 0.548 | 0.409 | 0.18 |
